Columns and labels:
[1] = species: Mus musculus; test: Effective dose required for maximal electroshock (MES)-induced seizures in mice in experiment 2; format: functional
[2] = species: Mus musculus; test: Effective dose required for maximal electroshock (MES)-induced seizures in mice in experiment 1; format: functional
[3] = species: Mus musculus; test: Effective dose required for maximal electroshock (MES)-induced seizures in mice.; format: functional
[4] = (§1) Neurologic toxicity determined using horizontal screen test in mice; format: organism-based; conditions: mouse, in vivo
[5] = Protective index (TD50/ED50); format: functional
[6] = species: Mus musculus; test: as §1; format: organism-based; conditions: in vivo
[7] = Neurologic toxicity determined using horizontal screen test in mice in experiment 1; format: organism-based; conditions: mouse, in vivo
[8] = Neurologic toxicity determined using horizontal screen test in mice in experiment 2; format: organism-based; conditions: mouse, in vivo
[9] = Neurologic toxicity determined using rotarod test in mice; format: organism-based; conditions: mouse, in vivo

SMILES: CC(=O)NC(C(=O)NCc1ccccc1)c1nnn[nH]1 (centres undefined)
- ED50 [1]: < 100 mg/kg
- ED50 [2]: > 30 mg/kg

SMILES: CC(=O)NC(C)(C(=O)NCc1ccccc1)c1ccco1 (centres undefined)
- ED50 ([3]; Mus musculus, read-out: ED50): > 300 mg/kg

SMILES: CC(=O)NC(C(=O)NCc1ccccc1)c1ccco1 (centres undefined)
- TD50 [4]: ~40 mg/kg
- PI [5]: 3.9

SMILES: CC(=O)NC(C(=O)NCc1ccccc1)c1ccccc1 (centres undefined)
- TD50 [4]: > 40 mg/kg

SMILES: CC(=O)N[C@H](C(=O)NCc1ccccc1)c1ccco1 (stereo in doubt; 4) [listing 1 of 2 here]
- ED50 [3]: 10.3 mg/kg
- TD50 [6]: ~ 40 mg kg-1

SMILES: CC(=O)NC(C(=O)NCc1ccc(F)cc1)c1ccco1 (centres undefined)
- PI [5]: 11.3

SMILES: CC(=O)NC(C(=O)NCc1ccccc1)n1cccc1 (centres undefined)
- ED50 ([3]; Mus musculus, read-out: ED50): 80.2 mg/kg

SMILES: CC(=O)NC(C(=O)NCc1ccccc1)c1ccc[nH]1 (centres undefined)
- TD50 [7]: > 30 mg/kg
- TD50 [8]: < 100 mg/kg

SMILES: CC(=O)NC(C(=O)NCc1ccccc1)c1nccs1 (centres undefined)
- TD50 [9]: 69.1 mg/kg
- ED50 ([3]; Mus musculus, read-out: ED50): 12.1 mg/kg
- PI [5]: 5.7

SMILES: CC(=O)NC(C(=O)NCc1ccccc1)c1ncon1 (centres undefined)
- ED50 [1]: < 300 mg/kg
- ED50 [2]: > 100 mg/kg

SMILES: CC(=O)NC(C(=O)NCc1ccccc1)n1cnnn1 (centres undefined)
- ED50 ([3]; Mus musculus, read-out: ED50): > 300 mg/kg

SMILES: CC(=O)NC(C(=O)NCc1ccncc1)c1ccco1 (centres undefined)
- ED50 ([3]; Mus musculus, read-out: ED50): > 100 mg/kg

SMILES: CC(=O)N[C@H](C(=O)NCc1ccc(C)cc1)c1ccco1
- ED50 ([3]; Mus musculus, read-out: ED50): 43.6 mg/kg

SMILES: CC(=O)NC(C(=O)NCc1cccnc1)c1ccco1 (centres undefined)
- ED50 ([3]; Mus musculus, read-out: ED50): ~30 mg/kg

SMILES: CC(=O)NC(C(=O)NCc1ccccc1)c1ncco1 (centres undefined)
- TD50 [9]: 38.6 mg/kg
- ED50 ([3]; Mus musculus, read-out: ED50): 10.4 mg/kg
- PI [5]: 3.7

SMILES: CC(=O)N[C@@H](C(=O)NCc1ccc(F)cc1)c1ccco1
- ED50 ([3]; Mus musculus, read-out: ED50): 3.5 mg/kg
- TD50 [4]: 14.4 mg/kg
- PI [5]: 4.1

SMILES: CC(=O)NC(C(=O)NCc1ccccc1)C1CCCO1 (centres undefined)
- ED50 ([3]; Mus musculus, read-out: ED50): 89.8 mg/kg

SMILES: CC(=O)N[C@H](C(=O)NCc1ccccc1)c1ccco1 (stereo in doubt; (S)-4)
- ED50 [3]: >25 mg/kg
- TD50 [6]: > 200 mg/kg

SMILES: CC(=O)NC(C(=O)NCc1ccccc1)n1cncn1 (centres undefined)
- ED50 [1]: < 100 mg/kg
- ED50 [2]: > 30 mg/kg

SMILES: CC(=O)NC(C(=O)NCc1ccc[n+]([O-])c1)c1ccco1 (centres undefined)
- ED50 ([3]; Mus musculus, read-out: ED50): ~30 mg/kg

SMILES: CC(=O)NC(C(=O)NCc1ccccc1)c1ccsc1 (centres undefined)
- TD50 [4]: > 100 mg/kg

SMILES: CC(=O)N[C@H](C(=O)NCc1ccccc1)c1ccco1 (stereo in doubt; 4) [listing 2 of 2 here]
- PI [5]: 3.9

SMILES: CC(=O)NC(C(=O)NCc1ccccc1)c1c[nH]cn1 (centres undefined)
- ED50 ([3]; Mus musculus, read-out: ED50): > 100 mg/kg

SMILES: CC(=O)N[C@H](C(=O)NCc1ccc(C(F)(F)F)cc1)c1ccco1
- ED50 ([3]; Mus musculus, read-out: ED50): 22.8 mg/kg

SMILES: CC(=O)NC(C(=O)NCc1ccccc1)c1nc[nH]n1 (centres undefined)
- ED50 ([3]; Mus musculus, read-out: ED50): > 100 mg/kg

SMILES: CC(=O)NC(C(=O)NCc1ccccc1)n1ccnc1 (centres undefined)
- ED50 ([3]; Mus musculus, read-out: ED50): > 100 mg/kg

SMILES: CC(=O)NC(C(=O)NCc1cc[n+]([O-])cc1)c1ccco1 (centres undefined)
- ED50 ([3]; Mus musculus, read-out: ED50): > 100 mg/kg

SMILES: CC(=O)N[C@@H](C(=O)NCc1ccccc1)c1ccco1
- ED50 ([3]; Mus musculus, read-out: ED50): 3.3 mg/kg
- PI [5]: 7.2

SMILES: CC(=O)NC(C(=O)NCc1ccccc1)c1ncc[nH]1 (centres undefined)
- ED50 ([3]; Mus musculus, read-out: ED50): > 100 mg/kg

SMILES: C/C(S)=N/C(/C(S)=N/Cc1ccccc1)c1ccco1 (centres undefined)
- ED50 ([3]; Mus musculus, read-out: ED50): > 100 mg/kg

SMILES: C/C(S)=N\C(C(=O)NCc1ccccc1)c1ccco1 (centres undefined)
- ED50 ([3]; Mus musculus, read-out: ED50): 18.4 mg/kg

SMILES: CC(=O)NC(C(=O)NCc1ccccc1)c1cccs1 (centres undefined)
- TD50 [7]: > 30 mg/kg
- TD50 [8]: < 100 mg/kg

SMILES: CC(=O)NC(C(=O)NCc1ccccc1)n1cccn1 (centres undefined)
- ED50 ([3]; Mus musculus, read-out: ED50): 16.5 mg/kg

SMILES: CC(=O)NC(C(=O)NNc1ccccn1)c1ccco1 (centres undefined)
- ED50 ([3]; Mus musculus, read-out: ED50): > 100 mg/kg

Reference: ChEMBL document CHEMBL1126877, “Synthesis and anticonvulsant activities of alpha-heterocyclic alpha-acetamido-N-benzylacetamide derivatives” (J Med Chem, 1993)
